{"source": "patent US20240189279A1", "about": "“IMMUNOMODULATORY COMPOSITIONS AND METHODS OF USE THEREOF” (THE TEXAS A&M UNIVERSITY SYSTEM, priority 2022, published 2024)", "key": {"[1]": {"tested_on": "Western diet (WD) fed mice", "assay": "Western diet mouse model of diet-induced fatty liver disease: serum ALT, liver TG, histology, body weight", "format": "in vivo, mice (male B6 129SF1/J)", "protocol": "Study design. The overall objective of the study was to investigate if […] can alleviate diet induced liver steatosis and inflammation in vivo. These NAFLD features were induced in mice by feeding the animals a WD and SW for 8 weeks. The drinking water for these mice was then supplemented with low and high doses of […], while continuing the WD for another 8 weeks. The phenotypic changes were assessed by measuring body weight gain, serum ALT, hepatic inflammatory cytokines, and histopathological examination of liver tissue. To investigate potential mechanisms of action, a series of omics analyses were performed on fecal material (metagenomics and metabolomics) and liver tissue (metabolomics and proteomics). To determine cell-type specific signaling mediating […] effects in macrophages, an in vitro cell culture model was used. The histopathological scoring of liver sections was blinded; all other analyses were not blinded. Sample processing and statistical analysis were performed concurrently on treatment and control groups using identical methods. Animal experiments. Male B6 129SF1/J mice at 6 weeks of age were obtained from Jackson Laboratories (Bar Harbor, ME). Mice were acclimatized to the animal facility for one week. At the start of the experiment, mice were randomly divided into four groups (n=10 for each group). Three of the four groups were fed ad libitum a Western diet (WD) with 40% Kcal from fat and containing 0.15% cholesterol (D12079B, Research Diets) and a sugar water (SW) solution (23.1 g/L d-fructose+18.9 g/L d-glucose) as previously described (DIAMOND model (15)). After 8 weeks, the three groups of WD-fed mice were randomly selected for treatment with vehicle (WD group) or low (WD-50 group) or high dose (WD-100 group) of […]. The WD group was fed WD and drank sugar water. The WD-50 and WD-100 groups were fed WD and drank sugar water containing, respectively, 50 or 100 mg […] per kg body weight. The treatments were continued for another 8 weeks. Water bottles containing SW and […] or only SW were changed every other day. A fourth group of mice was fed a low-fat control diet (D12450B, Research Diets) and normal water for 16 weeks (CN group) (FIG. 9A). FIG. 9A presents the study design. Mice belonging to the same treatment group were housed together (5 mice/cage). Mice were maintained on 12:12-h light-dark cycles. All procedures were performed in accordance with Texas A&M University Health Sciences Center Institutional Animal Care and Use Committee guidelines under an approved animal use protocol (AUP #2017-0145). Sample collection. Fecal pellets were collected every other week prior to […] treatment, right before […] treatment, every week during […] treatment, and on the last day of the experiments (FIG. 9B). FIG. 9B presents the sampling scheme. All fecal pellets were flash frozen in liquid nitrogen after collection. Blood samples from the submandibular vein were taken right prior to […] treatment, every other week during […] treatment and on the last day of the experiments. The blood samples were centrifuged at 4,000 g for 15 min at 4° C. to obtain serum. At the end of the experiment, the mice were sacrificed by euthanasia. The liver was quickly excised and rinsed with 10× volume of ice-cold PBS. The right medium lobe of the liver was fixed in 10% neutral formalin for histological analysis. A small piece from right lateral lobe was stored in RNAlater (Sigma Aldrich, St. Louis, MO) using the manufacturer's protocol. The remaining liver tissue samples were flash frozen in liquid nitrogen, homogenized in HPLC-grade water, lyophilized to a dry powder, and stored at -80° C. until further processing. Histological analysis. Formalin fixed liver were embedded in paraffin, sectioned (5 μm) and stained with hematoxylin and eosin (H&E) through VWR histological services (Radnor, PA). Liver histology sections were evaluated by an expert pathologist at Texas A&M University who was blinded to the treatment conditions. […]"}, "[2]": {"tested_on": "fatty acid metabolism enzymes in liver", "assay": "Liver targeted proteomics of fatty acid metabolism and antioxidant enzymes in WD mice", "format": "in vivo, mice (male B6 129SF1/J)", "excerpt": "Animal experiments. Male B6 129SF1/J mice at 6 weeks of age were obtained from Jackson Laboratories (Bar Harbor, ME). Mice were acclimatized to the animal facility for one week. At the start of the experiment, mice were randomly divided into four groups (n=10 for each group). Three of the four groups were fed ad libitum a Western diet (WD) with 40% Kcal from fat and containing 0.15% cholesterol (D12079B, Research Diets) and a sugar water (SW) solution (23.1 g/L d-fructose+18.9 g/L d-glucose) as previously described (DIAMOND model (15)). After 8 weeks, the three groups of WD-fed mice were randomly selected for treatment with vehicle (WD group) or low (WD-50 group) or high dose (WD-100 group) of […]. The WD group was fed WD and drank sugar water. The WD-50 and WD-100 groups were fed WD and drank sugar water containing, respectively, 50 or 100 mg […] per kg body weight. The treatments were continued for another 8 weeks. Water bottles containing SW and […] or only SW were changed every other day. A fourth group of mice was fed a low-fat control diet (D12450B, Research Diets) and normal water for 16 weeks (CN group) (FIG. 9A). FIG. 9A presents the study design. Mice belonging to the same treatment group were housed together (5 mice/cage). Mice were maintained on 12:12-h light-dark cycles. All procedures were performed in accordance with Texas A&M University Health Sciences Center Institutional Animal Care and Use Committee guidelines under an approved animal use protocol (AUP #2017-0145). Targeted proteomics. A panel of 15 proteins having differential abundance in the untargeted proteomics data were selected for targeted measurements using product ion scans for representative peptides (Table 7). The relative abundance of a target protein was determined by quantifying the corresponding peptide peak's AUCs in MultiQuant and normalizing the value by the sample protein weight."}, "[3]": {"tested_on": "palmitate and LPS stimulated macrophages", "assay": "Cytokine production in palmitate and LPS stimulated macrophages", "format": "cell-based"}, "[4]": {"conditions": "week 16, dose-dependent, WD-50 and WD-100 vs WD"}}, "note": "“Also recorded” adds a separate entry of the source.", "data": [{"compound": "O=C([O-])Cc1c[nH]c2ccccc12.[Na+]", "note": "[I3A, Indole-3-acetate sodium salt]", "values": [{"measurement": "protection against steatosis and immune cell infiltration in livers", "setting": "[1]; I3A up to 100 mg/kg body wt. in drinking water, 16 weeks WD, B6/129 mice", "result": "dose-dependently protected against these injuries"}, {"measurement": "serum alanine aminotransferase (ALT) levels", "setting": "[1]; high dose I3A (WD-100, 100 mg/kg in drinking water) vs WD, week 10 and beyond", "result": "significantly reduced serum ALT levels"}, {"measurement": "body weight increase", "setting": "[1]; normalized to week 8 body weight, I3A treated vs WD", "result": "slowed the weight increase"}, {"measurement": "liver TG", "setting": "[1]; week 16, WD-50 and WD-100 vs WD", "result": "reduced liver TG in a dose-dependent manner"}, {"measurement": "hepatocyte ballooning (H&E histology score)", "setting": "[1]; [4]", "result": "improved"}, {"measurement": "liver steatosis (H&E histology score)", "setting": "[1]; [4]", "result": "improved"}, {"measurement": "lobular inflammation (H&E histology score)", "setting": "[1]; [4]", "result": "improved"}, {"measurement": "decrease of Fasn in liver", "setting": "[2]; I3A treated vs WD", "result": 86, "unit": "%"}, {"measurement": "abundance of antioxidant enzymes catalase (CatB) and glutathione peroxidase 1 (Gpx1) in liver", "setting": "[2]; I3A treatment, WD-50 and WD-100", "result": "dose-dependent decrease"}, {"measurement": "abundance of acetyl-CoA carboxylase-2 (Acab) in liver", "setting": "[2]; WD-100 group vs WD", "result": "not significantly different"}, {"measurement": "abundance of fatty acid synthase (Fasn) in liver", "setting": "[2]; WD-100 group vs WD", "result": "decreased in the WD-100 group compared to the WD group"}, {"measurement": "abundance of mitochondrial β-oxidation enzymes Acadl, Acadm, Acads and Hadh in liver", "setting": "[2]; WD-100 group vs WD", "result": "significantly decreased in the WD-100 group compared to WD"}, {"measurement": "abundance of peroxisomal β-oxidation enzymes Acox1, Acaala and Acaalb in liver", "setting": "[2]; WD-100 group vs WD", "result": "A similar trend was observed"}, {"measurement": "abundance of CD36 in liver", "setting": "[2]; WD-100 group vs WD, sodium salt", "result": "did not affect CD36 abundance; also recorded: decreased, but not significantly"}, {"measurement": "production of TNF-α, IL-1β, and MCP-1", "setting": "[3]", "result": "dose-dependently attenuated the production of TNF-α, IL-1β, and MCP-1"}]}]}
